{
  "source": "patent US9408389B2",
  "about": "(Rohm and Haas Company, priority 2013, dated 2016)",
  "key": {"Chlorella sp. ATCC 7516": {"system": "Chlorella sp. ATCC 7516", "experiment": "Algal efficacy testing of dry paint films (modified ASTM D5589-09), Chlorella", "format": "cell-based", "details": "672 h", "protocol": "(§1) Slurries containing 33% flurochloridone were post added to a white, acrylic/silicone based outdoor paint free of biocides to give a total active ingredient concentration of 10000 and 1000 ppm respectively. These paints were then diluted with an antimicrobial free acrylic/silicone based paint and mixed to prepare targeted concentrations of antimicrobial compounds for the testing. The total biocides concentrations tested were 125, 250, 500, 1000, 2000 and 5000 ppm. After biocides addition or dilution, the paints were mixed 90 seconds with the horse power shaker (AXEL 75M3372/Agitateur SO-10MI) until uniformity was achieved. Paints containing different antimicrobial compounds at the same levels were mixed together in order to obtain the desired ratio of antimicrobial compounds. After one day, the paints were applied to Schleicher & Schuell filter paper at 280 μm wet film thickness and dried for 3 days at room temperature avoiding direct exposure to sunlight. Square discs (1.6 cm×1.6 cm) were cut out from each panel and were used as the substrate for algal efficacy tests. This sample size allowed for an agar border when the sample disc was placed into the well of the test plate. […]\n(§2) At the end of the four week incubation period, the samples were scored for percent inhibition regarding visible algal growth compared to the blank sample (0% inhibition).\n(§3) The SI is calculated based on F. C. […]"}, "[1]": {"system": "Stichococcus bacillaris SAG 379-1a / CCAP 379/1a", "experiment": "Algal efficacy testing of dry paint films (modified ASTM D5589-09), Stichococcus", "format": "cell-based", "details": "672 h", "protocol": "as §1, §2, §3"}},
  "data": [
    {"smiles": "O=c1[nH]c2c(c(=O)n1C1CCCCC1)CCC2", "note": "[Lenacil, 3-cyclohexyl-1,5,6,7-tetrahydrocyclopentapyrimidine-2,4(3H)-dione]", "values": [
      {"measurement": "inhibition at 5000 ppm", "setting": "Chlorella sp. ATCC 7516", "value": 45, "unit": "%"},
      {"measurement": "inhibition at 5000 ppm", "setting": "[1]", "value": 65, "unit": "%"}
    ]},
    {"smiles": "O=C1C(Cl)C(CCl)CN1c1cccc(C(F)(F)F)c1", "note": "(stereo not shown) [Flurochloridone, 3-chloro-4-(chloromethyl)-1-[3-(trifluoromethyl)phenyl]-2-pyrrolidinone]", "values": [
      {"measurement": "inhibition at 2000 ppm", "setting": "Chlorella sp. ATCC 7516; total conc 2000 ppm in paint, 4 weeks, visible algal growth vs blank", "value": 60, "unit": "%"},
      {"measurement": "inhibition at 2000 ppm", "setting": "[1]; Stichococcus, total conc 2000 ppm in paint, 4 weeks, visible algal growth vs blank", "value": 50, "unit": "%"}
    ]}
  ]
}
